Experimental data: article PMC7577563 (Journal of medicinal chemistry, 2019)
Square brackets hold non-standard residues; d marks the D form. Peptide text beside a SMILES is read from it. Tyr(SO2F) = N[C@@H](Cc1ccc(OS(=O)(=O)F)cc1)C(=O)O; NMeA = CN[C@@H](C)C(=O)O

Key:
Plasma stability = type: in vitro ADME; details: mouse plasma

Structure (SMILES)	Aqueous stability at physiological pH (Chemical)	Plasma stability (Plasma stability)
CN[C@@H](C)C(=O)N[C@@H](CNC(=O)c1ccc(S(=O)(=O)F)cc1)C(=O)N1CCC[C@H]1C(=O)N[C@@H](Cc1ccccc1)C(N)=O [Compound 2]	the least stable	
CN[C@@H](C)C(=O)N[C@@H](CNCc1ccc(S(=O)(=O)F)cc1)C(=O)N1CCC[C@H]1C(=O)N[C@@H](Cc1ccccc1)C(N)=O [Compound 3]	intermediate stability	
CN[C@@H](C)C(=O)N[C@@H](Cc1ccc(OS(=O)(=O)F)cc1)C(=O)N1CCC[C@H]1C(=O)N[C@@H](Cc1ccccc1)C(N)=O [Compound 4] (H-[NMeA][Tyr(SO2F)]PF-NH2)	the most stable	
CN[C@@H](C)C(=O)N[C@@H](CNCc1ccc(S(=O)(=O)F)cc1)C(=O)N1CCC[C@H]1C(=O)N[C@@H]1CCc2c(F)cccc21 [Compound 11, 4-((((S)-3-((S)-2-(((R)-4-fluoro-2,3-dihydro-1H-inden-1-yl)carbamoyl)pyrrolidin-1-yl)-2-((S)-2(methylamino)propanamido)-3-oxopropyl)amino)methyl)benzenesulfonyl fluoride]		completely degraded in plasma after 40 minutes
